Measured values: patent publication US7314969B2, “Methods and compositions for the introduction of molecules into cells” (priority 1999, dated 2008)
Like-named read-outs stand apart in the source and are kept apart here.

How the values were obtained:
[1] = system: embryogenic soybean callus; assay: Effect of media constituents on growth of embryogenic soybean callus in B1-30; assay type: cell-based
From the text: In another embodiment of the present invention, a novel culture media may be used to stimulate high frequency production of embryogenic soybean callus. Improvement varied with the genotype being cultured. […] The inclusion of one or more of four media constituents, coconut water, myoinositol, phytic acid and inorganic phosphate concentration, enhanced embryogenic callus production and allowed significant improvements to be made to transgenic clone production in terms of number of clones recovered, embryo morphology, and reduction in the time needed to identify the clones and regenerate plants from them. The medium of Ranch et al., 1985 (referred to herein as B1-30) was used as the basal medium. An example of the medium of the present invention is B1-30 3Co5My0.25PA0.5K (footnote, Table 5). Although this medium is a preferred emobodiment of growth medium, other conventional media may be utilized in the practice of the invention.
Coconut water has been included in tissue culture media for over 50 years. Coconut water is liquid taken from coconuts to promote growth in plant tissue cultures. It is deproteinized then filter-sterilized. An example is Sigma Biosciences' Cat. No. C5915. […] Most commonly coconut water is used at concentrations of between 5% and 10% by volume of the final culture medium. The role of coconut water in stimulating the growth of embryogenic callus in soybean was investigated and it was discovered that its effect on cotyledon explants routinely used to initiate embryogenic callus of soybean was detrimental when tested at these concentrations.
One key component of coconut water is myoinositol (Pollard et al., 1961). In an attempt to improve the growth of embryogenic soybean callus with components of coconut water, it was discovered that myoinositol was effective in this regard. Myoinositol has been included in tissue culture media for a variety of plant species. Although apparently not required for all species (Halperin, 1966), it is routinely included in media such as the widely used Murashige and Skoog formulation (Murashige and Skoog, 1962) at a concentration of 100 mg/l. It is at this concentration that it has been included in media used for the culture of embryogenic callus of soybean (e.g., see Ranch et al., 1985).
There are no known reports of the inclusion of phytic acid in culture media for any plant species. Soybean seeds are rich in natural chelating agents, the most prominent of which is phytic acid (Gibson and Ullah, 1990). Substantial amounts of phosphate are stored in seeds in the form of phytate (Raboy, 1990). It is possible that the capacity of phytic acid to sequester inorganic phosphate has a significant impact upon C partitioning into either starch or sucrose. At 1 gm/l in B1-30, embryogenic callus of a range of genotypes exuded starch, possibly confirming the impact of phytic acid on C partitioning. […] Best results over many passages were obtained with the addition of about 5 mg/l to about 250 mg/l phytic acid to the culture medium depending on the genotype.
Inorganic phosphorous in the form of KH2PO4, in excess of the amount conventionally used, was added to the base medium (B1-30) along with myoinositol and coconut water. This medium was tested against B1-30 supplemented with phytic acid in addition to KH2PO4, myoinositol and coconut water.

DH5 cells = assay type: cell-based, E. coli; settings: 10 mg/l tetracycline
Experimental: One microgram of supercoiled pSB1 was added to 1.0 ml of sterile ddH2O and briefly vortexed. […] For a control SB1 plasmid was used without the addition of any cationic polypeptides. Transformation of bacteria was carried out as described in Example 17. Briefly, subcloning efficient DH5 cells from Invitrogen were transformed. Ten microliters of cells were mixed with 0.1 ml of YP medium (10 g/L peptone, 5 g/L yeast extract, and 5 g/L NaCl). The cells were pipeted in the center of a YP plate (same as above plus 15.0 g/L agar) and allowed to dry in a laminar flow hood. The pSB1 plus or minus cationic polypeptides was introduced into the cells using an aerosol beam injector as described in parent U.S. patent application Ser. No. 09/724,265. After about 1 hour of incubation at 37° C., the aerosol beamed cells plus the YP medium were cut out as a slab and placed on YP medium with 10 mg/1 tetracycline. Plasmid SB1 harbors resistance to the antibiotic tetracycline. The cells were grown overnight at 37° C. and then evaluated for the presence of colonies that were growing on the medium. If the plasmid pSB1 were sheared it would not replicate in the cell, thus no antibiotic resistant colony would have formed, however, if the plasmid was not sheared it could replicate once inside the cell and an antibiotic colony would have appeared.

bacterial cells = assay type: cell-based, E. coli
Experimental: Transformation of bacteria using the method of the invention was accomplished as follows: competent E. coli DH5 alpha (Gibco BRL) or HB101 cells were thawed on ice and 5 to 50 microliters were combined with 0.2 ml LB broth. The mixture was pipetted to the center of a plate of LB agar (1.5%) containing 100 mg/l ampicillin and allowed to dry. Aerosol beam parameters were the same as those described previously (Example 1) except as noted in this Example. A pUC-derived plasmid encoding for resistance to the antibiotic ampicillin was delivered to the bacterial cells, as is known in the art. The concentration of DNA ranged from about 1.0 to 1000 μg/ml in 10 mM Tris (pH7.0) or a carbohydrate molecule, such as 1 g/l sucrose. The nebulizing pressure was from about 10 to about 40 psi, preferably 30 to 40 psi. The entrainment temperature was maintained in a given experiment and ranged between experiments from about 24° to about 55° C., and was preferably maintained at about 42° to about 55° C. and most preferably at about 55° C. Various sample flow rates were tested ranging from about 0.25 ml/hour to about 2.0 ml/hour (about 4 μl/min. to about 33 μl/min.). Preferably the flow rate was about 8.0 μl/minute to about 17.0 μl/minute.
Nucleic acid and protein were simultaneously delivered into bacterial cells. Preparation of bacteria and parameters for the aerosol beam apparatus were the same as described previously for delivery of DNA into bacteria (Example 12). The same buffer, plasmid, and plasmid concentration was used as described in the transformation of bacteria. Ribonuclease A (RNASE A) (Sigma cat. no. R6513) was added to the DNA sample at a final concentration of 2.5 μg/ml.
As a control, RNASE A at the same concentration used for beaming was pipetted on the cells after the cells were beamed with DNA only. […] To verify that the RNASE A was not degrading the plasmid, the plasmid treated with RNASE A was run on a standard 1% agarose gel. After staining the DNA with ethidium bromide, the DNA appeared intact and no degradation was evident. […]

[2] = 1 microgram pSB1 in 1.0 ml plus 2.0 ul of 20 ug/ul cationic polypeptide
[3] = 1 microgram pSB1 in 1.0 ml plus 1.0 ul of 2.0 ug/ul polyamine

O=P([O-])(O)O.[K+] [KH2PO4]
effect on embryogenic soybean callus ([1]; 500 and 1000 mg/l added to B1-30 with myoinositol and coconut water, with and without phytic acid): Beneficial effects

Poly-L-Lysine
transformed colonies growing per plate (DH5 cells; [2]): about 500 colonies per plate

O=P(O)(O)O[C@H]1[C@H](OP(=O)(O)O)[C@@H](OP(=O)(O)O)[C@H](OP(=O)(O)O)[C@@H](OP(=O)(O)O)[C@H]1OP(=O)(O)O [phytic acid, inositolhexaphosphoric acid]
rate of growth of embryogenic callus ([1]; 1, 5, 10, 50, 100, 250, 500 and 1000 mg/l in B1-30, initial culture passage and/or maintenance as stock culture): significantly increased | growth of soybean callus after initial starch exudation ([1]; 1 gm/l in B1-30, range of genotypes): grew very vigorously | effect on embryogenic callus ([1]; 3000 mg/l, callus browned and died): clear detrimental effect

O[C@H]1[C@H](O)[C@@H](O)[C@H](O)[C@@H](O)[C@H]1O [myoinositol]
effect on growth of embryogenic soybean callus ([1]; up to 10 g/l, alone or in combination with coconut water): pronounced and beneficial effect

Poly-L-Ornithine
transformed colonies growing per plate (DH5 cells; [2]): about 500 colonies per plate

NCCCCNCCCN [spermidine]
transformed colonies growing per plate (DH5 cells; [3]): about 500 colonies per plate

NCCCNCCCCNCCCN [spermine]
transformed colonies growing per plate (DH5 cells; [3]): about 500 colonies per plate

B1: RNASE A: Ribonuclease A (Sigma cat. no. R6513) (protein, UniProt P61823 27-150, looked up)
Ribonuclease pancreatic: KETAAAKFERQHMDSSTSAASSSNYCNQMMKSRNLTKDRCKPVNTFVHESLADVQAVCSQKNVACKNGQTNCYQSYSTMSITDCRETGSSKYPNCAYKTTQANKHIIVACEGNPYVPVHFDASV
colonies on medium containing ampicillin (bacterial cells; 2.5 μg/ml beamed together with DNA): no colonies were observed | colonies on medium containing ampicillin (bacterial cells; same concentration pipetted on the cells after beaming with DNA only): transformed colonies grew

B2: inactivated RNASE A: RNASE A inactivated with diethylpyrocarbonate (DEP) (protein, UniProt P61823 27-150, looked up)
Ribonuclease pancreatic: B1 Ribonuclease pancreatic
modifications: inactivated with diethylpyrocarbonate
transformation of bacteria (bacterial cells; RNASE A inactivated with diethylpyrocarbonate, beamed with DNA): normal transformation of bacteria
